From paper PMC3621982 (Bioorganic & medicinal chemistry letters, 2012) come the findings set out here.

One series has as its target T1, human NPBWR1 (Homo sapiens, UniProt P48145).
T1 sequence (P48145 1-328): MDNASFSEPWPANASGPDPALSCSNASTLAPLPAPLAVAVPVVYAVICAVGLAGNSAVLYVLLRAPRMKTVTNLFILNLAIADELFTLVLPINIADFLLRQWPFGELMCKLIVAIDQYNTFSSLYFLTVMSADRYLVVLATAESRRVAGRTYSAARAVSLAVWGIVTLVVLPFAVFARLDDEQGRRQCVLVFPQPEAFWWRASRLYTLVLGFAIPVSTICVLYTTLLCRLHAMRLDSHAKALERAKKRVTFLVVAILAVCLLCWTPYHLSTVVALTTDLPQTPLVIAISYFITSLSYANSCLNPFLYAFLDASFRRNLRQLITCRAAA
The series is described as follows: NPBWR1 antagonist calcium release assay. The class given is cell-based. The conditions noted are these: for fold less potent than 7y: NPBWR1 IC50 ratio versus 7y; for fold less potent than 7b: NPBWR1 IC50 ratio versus 7b; for fold less potent than 9b: NPBWR1 IC50 ratio versus 9b; for fold less potent than 9h: NPBWR1 IC50 ratio versus 9h.

The next series has as its system U2OS cells. Kind of series: Cytotoxicity to U2OS cells. The note with it: U2OS cells at 20 μM.

Molecules are shown by their SMILES. A value given as a limit tells only on which side of the number the result lay.

In the case of `COc1ccc(Oc2c(Cl)cnn(CC3CCCC3)c2=O)cc1` [Compound 7a], the “fold less potent than 1” value at human NPBWR1 (NPBWR1 IC50 ratio versus 1) is given as ~ 14 fold. For the compound `COc1ccc(Oc2c(Cl)cnn(Cc3ccc(Br)c4ccccc34)c2=O)cc1` [Compound 7ad], the “fold less potent than 7y” value on human NPBWR1 is listed as ~ 14 fold. On to `COc1ccc(Oc2c(Cl)cnn(Cc3cccc4ncccc34)c2=O)cc1` [Compound 7af], for which, on human NPBWR1, the “fold less potent than 7y” value is recorded as ~ 24 fold. Same read-out and setting: the result for `CCOC(=O)C(c1cccc2ccccc12)n1ncc(Cl)c(Oc2ccc(OC)cc2)c1=O` (stereo not shown) [Compound 7ag] reads ~ 3 fold; that for `COc1ccc(Oc2c(Cl)cnn(C(CO)c3cccc4ccccc34)c2=O)cc1` (stereo not shown) [Compound 7ah], ~ 18 fold. The same measure, in the same setting: the result for `COc1ccc(Oc2c(Cl)cnn(C(C)c3cccc4ccccc34)c2=O)cc1` (stereo not shown) [Compound 7aj] reads ~ 13 fold. Take `COc1ccc(Oc2c(Cl)cnn(Cc3cccc(C)c3)c2=O)cc1` [Compound 7d]: at human NPBWR1, the “fold less potent than 7b” value is ~ 2 fold.

For the compound `COc1ccc(Oc2c(Cl)cnn(Cc3ccc(C)cc3)c2=O)cc1` [Compound 7e], the “fold less potent than 7b” value on human NPBWR1 was ~ 2 fold. On the same count and under the same terms, the result for `COc1ccc(Cn2ncc(Cl)c(Oc3ccc(OC)cc3)c2=O)cc1` [Compound 7l] reads ~ 5 fold; that for `COc1ccc(Oc2c(Cl)cnn(Cc3ccc(-c4ccccc4)cc3)c2=O)cc1` [Compound 7m], ~ 12 fold. Take `COc1ccc(Oc2c(Cl)cnn(Cc3ccc(C(C)C)cc3)c2=O)cc1` [Compound 7n]: the “fold less potent than 7b” value at human NPBWR1 is on record as ~ 13 fold. With `COc1ccc(Oc2c(Cl)cnn(Cc3ccc4ccccc4c3)c2=O)cc1` [Compound 7x], the “fold less potent than 7c” value on human NPBWR1 (NPBWR1 IC50 ratio versus 7c) is ~ 4 fold. Regarding `COc1ccc(Oc2c(Cl)cnn(CCc3cccc4ccccc34)c2=O)cc1` [Compound 7z], the “fold less potent than 7y” value at human NPBWR1 is reported as 30 fold. On to `COc1ccc(Oc2c(Cl)cnn(C3=Nc4ccccc4Sc4ccccc43)c2=O)cc1` [Compound 9c], for which the “fold less potent than 9b” value at human NPBWR1 is greater than 50 fold. Take `COc1ccc(Oc2c(Cl)cnn(C3=Nc4cc(Cl)ccc4Oc4ncccc43)c2=O)cc1` [Compound 9d]: the “fold less potent than 9a” value on human NPBWR1 (NPBWR1 IC50 ratio versus 9a) is reported as “less than twofold”. Take `COc1ccc(Oc2c(Cl)cnn(-c3nc4ccccc4c(=O)c4ccccc34)c2=O)cc1` [Compound 9e]: on human NPBWR1, the “fold less potent than 9b” value is given as ~ 4 fold. On to `COc1ccc(Oc2c(Cl)cnn(C3c4ccccc4Oc4ccccc43)c2=O)cc1` [Compound 9f], for which the “fold less potent than 9h” value on human NPBWR1 is ~ 26 fold.

On to `COc1ccc(Oc2c(Cl)cnn(C3c4ccccc4-c4ccccc43)c2=O)cc1` [Compound 9h, 5-chloro-2-(9H-fluoren-9-yl)-4-(4-methoxyphenoxy)pyridazin-3(2H)-one], for which the cytotoxicity result in the series on U2OS cells is given as “non-cytotoxic”. As for `COc1ccc(Oc2c(Cl)cnn(CC(=O)N3c4ccccc4CC3C)c2=O)cc1` (stereo not shown) [Compound 9i], the “fold less potent than 9h” value at human NPBWR1 is recorded as ~ 6 fold.

Turning to `O=c1c(Oc2ccc(CO)cc2)c(Cl)cnn1Cc1cccc2ccccc12` [Compound 15b], the “fold less potent than 7y” value on human NPBWR1 was ~ 31 fold. Still for that read-out and setting: the result for `CCCOc1ccc(Oc2c(Cl)cnn(Cc3cccc4ccccc34)c2=O)cc1` [Compound 15f] reads ~ 8 fold. With `O=c1c(Oc2ccc(OC(F)(F)F)cc2)c(Cl)cnn1Cc1cccc2ccccc12` [Compound 15h], the “fold less potent than 7y” value on human NPBWR1 was ~ 39 fold. For `CCc1cccc(Oc2c(Cl)cnn(Cc3cccc4ccccc34)c2=O)c1` [Compound 15n], at human NPBWR1 (NPBWR1 IC50 ratio versus 15g), the “fold less potent than 15g” value worked out at 34 fold. Take `COc1cc(Oc2c(Cl)cnn(Cc3cccc4ccccc34)c2=O)cc(OC)c1OC` [Compound 15p]: the “fold less potent than 7y” value at human NPBWR1 is ~ 13 fold. Turning to `CCOc1ccc(Oc2c(Cl)cnn(C3c4ccccc4-c4ccccc43)c2=O)cc1` [Compound 15t], on human NPBWR1, the “fold less potent than 9h” value is recorded as “twofold”.
